# Source: US20240002388A1, “PYRIMIDINONE COMPOUNDS AND USES THEREOF” (HUTCHISON MEDIPHARMA LIMITED, priority 2020, published 2024)
# pIC50: −log10 of the molar value.
# Biological target: RIPK1 recombination protein (Homo sapiens (Human), UniProt Q13546)
# Assay: RIPK1 kinase activity assay (ADP-Glo)
# Assay type: biochemical
# Settings: RIPK1 kinase activity, ADP-Glo, 10 μM ATP
# Procedure: RIPK1 recombination protein: synthesized by Shanghai Medicilon Inc. under the commission by Hutchison MediPharma Limited (50 g of cell pellet was resuspended in 250 mL of lysis buffer (50 mM Tris, pH 7.5, 250 mM NaCl, 1 mM DTT, protease inhibitor 1:50), the cells were ultrasonically lysed using a sonicator (the power set to 4) on ice for 3×30 minutes; then centrifugation was carried out at 4° C., at 15,000 g for 30 minutes to clarify the suspension, the soluble pellet was resuspended into 10 mL of glutathione agarose, and incubated at 4° C. for 2 hours; then the beads were loaded into the column and washed with lysis buffer (no protease inhibitors) to baseline, and eluted with 20 mM of reduced glutathione (50 mM Tris, pH 8). The fractions identified by SDS-PAGE as containing the protein of interest were collected (10 mL of total volume), concentrated to about 5 mL and loaded into 300 mL superdex75 column (GE Healthcare) equilibrated with buffer (50 mM Tris, pH 7.5, 150 mM NaCl, 1 mM DTT, 10% glycerol, pH 7.5). RIP1 protein was eluted as a dimer from the superdex75 column. The protein concentration was determined by the Bradford assay using BSA as the standard. The yield was 12.5 mg at 0.63 mg/mL. The protein was aliquoted and frozen at −80° C. for later use.
# ADP-Glo Kinase kit can be used to measure ADP level in kinase activity assay so as to distinguish the inhibitory effects of different compounds on RIPK1 kinase activity. The ADP-Glo assay was usually divided into three steps. Firstly, the kinase converted ATP to ADP and phosphorylated the substrate at the same time; secondly, ATP digestion reagent was added to degrade all ATP in the reaction system; finally, a detection reagent was added to reduce ADP to ATP, and energy from ATP was transferred to […] which thus emitting a chemical luminescence that can be detected. Assay procedure can refer to manufacture's technical manual.
# (2) Reagent Preparation: • 1.33× kinase buffer: 5× kinase buffer stock (250 mM of NaCl, 150 mM of MgCl2, 2.5 mg/ml BSA (bovine serum albumin), 0.1% CHAPS (3-[(3-cholamidopropyl)-dimethyl-ammonio]-1-propane sulfonate), and 5 mM of dithiothreitol) was diluted with water to 1.33× kinase buffer; • RIPK1 enzyme solution: the kinase was dissolved in 1.33× kinase buffer to make 40 nM as the final working concentration; • ATP solution: 10 mM ATP stock solution in water was dissolved in 1.33× kinase buffer to make 10 μM as the final working concentration; • 4× compound preparation: the compound was diluted in a 3-fold gradient, and finally 4% DMSO aqueous solution containing different concentrations of the compound was obtained. The final concentrations of the test compound were 10, 3.33, 1.11, 0.37, 0.12, 0.04, 0.014, and 0.005 μM.
# The assay set up two control groups, one was 100% inhibition group (no enzyme treatment), another was 0% inhibition group (no inhibitor treatment), each control group contained 8 replicate wells. 2.5 μl of serially diluted compound was added to each well of a 384-well plate, with double replicate wells, and 4% DMSO solution was added to control wells. Then 5 μl of RIPK1 enzyme solution was added to each well except 100% inhibition control, 5 ul of buffer was added to 100% inhibition control, after that, 2.5 μl of ATP solution was added to all wells, the plate was vibrated at 1000 rpm for 30 seconds to perform transient centrifuge; finally the 384-well assay plate was put in the shaking incubator, and incubated at room temperature for 3 hours. After the enzymatic reaction was completed, 5 μl of ATP depletion reagent was added to each well, the mixture was centrifuged transiently, then the 384-well assay plate was put in the shaking incubator, and incubated at room temperature for 1 hour. 5 μl of ADP detection reagent was added to each well, and the mixture was centrifuged transiently, and incubated at room temperature for 0.5 hour. […]
# Sequence of RIPK1 recombination protein (Q13546 other isoform, or with tags, fused parts or gaps): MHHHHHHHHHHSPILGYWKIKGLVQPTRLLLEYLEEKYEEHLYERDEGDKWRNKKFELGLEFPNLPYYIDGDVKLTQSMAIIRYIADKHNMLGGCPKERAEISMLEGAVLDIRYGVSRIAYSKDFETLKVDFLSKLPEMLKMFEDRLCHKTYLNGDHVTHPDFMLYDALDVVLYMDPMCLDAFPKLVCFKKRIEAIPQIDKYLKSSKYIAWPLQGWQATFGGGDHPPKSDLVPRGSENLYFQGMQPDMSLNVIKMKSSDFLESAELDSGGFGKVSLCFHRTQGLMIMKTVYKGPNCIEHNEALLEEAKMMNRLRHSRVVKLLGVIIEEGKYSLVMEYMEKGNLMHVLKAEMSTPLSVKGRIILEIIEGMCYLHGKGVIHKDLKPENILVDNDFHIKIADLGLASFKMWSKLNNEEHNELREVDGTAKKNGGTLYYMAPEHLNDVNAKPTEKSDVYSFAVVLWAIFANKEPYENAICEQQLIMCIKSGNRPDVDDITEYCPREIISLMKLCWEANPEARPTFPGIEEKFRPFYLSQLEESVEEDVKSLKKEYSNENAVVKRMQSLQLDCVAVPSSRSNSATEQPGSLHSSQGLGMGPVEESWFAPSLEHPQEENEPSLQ
row,pIC50,SMILES
1,7.52,CC(C)n1cncc(-c2ccc(C3(NC(=O)c4nc5n(n4)[C@@H](c4ccccc4)CC5)CC3)cc2)c1=O [Compound 15]
2,7.68,CC(C)n1cncc(-c2ccc(C3(NC(=O)c4ncc5cnn(CC6CCC6)c5n4)CC3)cc2)c1=O [Compound 62]
3,7.31,CC(C)n1ncc2cnc(C(=O)NC3(c4ccc(-c5cncn([C@H]6C[C@@H]6F)c5=O)cc4)CC3)nc21 [Compound 67]
4,7.42,Cn1cncc(-c2ccc(C3(NC(=O)c4nnc(Cc5ccccc5)o4)CC3)cc2)c1=O [Compound 11]
5,7.32,CC(C)n1ncc2cnc(C(=O)NC3(c4ccc(-c5cncn(CC(F)(F)F)c5=O)cc4)CC3)nc21 [Compound 38]
6,7.64,"C[C@H](c1ccccc1)n1cnc(C(=O)NC2(c3ccc(-c4cncn(C)c4=O)cc3)CC2)n1 [Compound 55, (R)—N-(1-(4-(1-methyl-6-oxo-1,6-dihydropyrimidin-5-yl)phenyl)cyclopropyl)-1-(1-phenylethyl)-1H-1,2,4-triazole-3-carboxamide]"
7,7.19,CC(C)n1cncc(-c2ccc(C3(NC(=O)c4ncc5cnn(CC6CC6)c5n4)CC3)c(F)c2)c1=O [Compound 72]
8,7.33,"CC(C#N)n1cncc(-c2ccc(C3(NC(=O)c4ncc5cnn(C(C)C)c5n4)CC3)cc2)c1=O (stereo in doubt) [Compound 83, (S)—N-(1-(4-(1-(1-cyanoethyl)-6-oxo-1,6-dihydropyrimidin-5-yl)phenyl)cyclopropyl)-1-i-propyl-1H-pyrazolo[3,4-d]pyrimidine-6-carboxamide]"
9,7.29,"CC(C#N)n1cncc(-c2ccc(C3(NC(=O)c4ncc5cnn(C(C)C)c5n4)CC3)cc2)c1=O (stereo in doubt) [Compound 82, (R)—N-(1-(4-(1-(1-cyanoethyl)-6-oxo-1,6-dihydropyrimidin-5-yl)phenyl)cyclopropyl)-1-i-propyl-1H-pyrazolo[3,4-d]pyrimidine-6-carboxamide]"
10,7.38,"CC(C)n1ncc2cnc(C(=O)NC3(c4ccc(-c5cncn(C6CCOC6)c5=O)cc4)CC3)nc21 (stereo in doubt) [Compound 80, (R)-1-i-propyl-N-(1-(4-(6-oxo-1-(tetrahydrofuran-3-yl)-1,6-dihydropyrimidin-5-yl)phenyl)cyclopropyl)-1H-pyrazolo[3,4-d]pyrimidine-6-carboxamide]"
11,7.48,CC(C)n1ncc2cnc(C(=O)NC3(c4ccc(-c5cncn(C6(C)CC6)c5=O)cc4)CC3)nc21 [Compound 78]
12,7.77,O=C(NC1(c2ccc(-c3cncn(CC4CC4)c3=O)cc2)CC1)c1ncc2cnn(CC3CC3)c2n1 [Compound 64]
13,7.39,"CC(C)n1ncc2cnc(C(=O)NC3(c4ccc(-c5cncn([C@H]6C[C@H](F)C6)c5=O)cc4)CC3)nc21 [Compound 87, N-(1-(4-(1-(trans-3-fluorocyclobutyl)-6-oxo-1,6-dihydropyrimidin-5-yl)phenyl)cyclopropyl)-1-i-propyl-1H-pyrazolo[3,4-d]pyrimidine-6-carboxamide]"
14,8.05,CC(C)n1ncc2cnc(C(=O)NC3(c4ccc(-c5cncn(C6CC6)c5=O)cc4)CC3)nc21 [Compound 12]
15,7.42,Cn1cncc(-c2ccc(C3(NC(=O)c4nnc(Cc5c(F)cccc5F)[nH]4)CC3)cc2)c1=O [Compound 18]
16,7.60,CC(C)n1cncc(-c2ccc(C3(NC(=O)c4nc5n(n4)[C@H](c4ccccc4)CC5)CC3)cc2)c1=O [Compound 16]
17,7.21,CC(C)n1ncc2cnc(C(=O)NC3(c4ccc(-c5cncn(C6COC6)c5=O)cc4)CC3)nc21 [Compound 41]
18,7.29,CC(C)n1ncc2cnc(C(=O)NC3(c4ccc(-c5cncn(CC6CC6)c5=O)c(F)c4)CC3)nc21 [Compound 75]
19,7.21,CC(C)n1ncc2cnc(C(=O)NC3(c4ccc(-c5cncn(CC6CC6)c5=O)cc4F)CC3)nc21 [Compound 74]

row,pIC50,SMILES
1,7.43,CC(C)n1cncc(-c2ccc(C3(NC(=O)c4ncc5cnn(-c6ccccn6)c5n4)CC3)cc2)c1=O [Compound 63]
2,7.29,C[C@@H](n1cncc(-c2ccc(C3(NC(=O)c4ncc5cnn(CC6CC6)c5n4)CC3)c(F)c2)c1=O)C(F)(F)F [Compound 76]
3,6.96,C[C@H](n1cncc(-c2ccc(C3(NC(=O)c4ncc5cnn(CC6CC6)c5n4)CC3)c(F)c2)c1=O)C(F)(F)F [Compound 71]
4,7.82,CC(C)n1cncc(-c2ccc(C3(NC(=O)c4ncn(Cc5ccccc5)n4)CC3)cc2)c1=O [Compound 17]
5,7.23,CC(C)n1ncc2cnc(C(=O)NC3(c4ccc(-c5cncn([C@H](C)C(F)(F)F)c5=O)cc4)CC3)nc21 [Compound 39]
6,7.55,CC(C)n1ncc2cnc(C(=O)NC3(c4ccc(-c5cncn(CC6CC6)c5=O)c(F)c4F)CC3)nc21 [Compound 95]
7,7.35,"CC(C)n1ncc2cnc(C(=O)NC3(c4ccc(-c5cncn([C@H](C)C6CC6)c5=O)cc4)CC3)nc21 [Compound 84, (R)—N-(1-(4-(1-(1-cyclopropylethyl)-6-oxo-1,6-dihydropyrimidin-5-yl)phenyl)cyclopropyl)-1-i-propyl-1H-pyrazolo[3,4-d]pyrimidine-6-carboxamide]"
8,7.85,CC(C)n1cncc(-c2ccc(C3(NC(=O)c4ncc5cnn(CC6CC6)c5n4)CC3)cc2)c1=O [Compound 61]
9,7.68,CC(C)n1ncc2cnc(C(=O)NC3(c4ccc(-c5cncn([C@@H]6C[C@@H]6F)c5=O)cc4)CC3)nc21 [Compound 69]
10,7.02,"CC(C)n1ncc2cnc(C(=O)NC3(c4ccc(-c5cncn(C)c5=O)cc4)CC3)cc21 [Compound 28, 1-isopropyl-N-(1-(4-(1-methyl-6-oxo-1,6-dihydropyrimidin-5-yl)phenyl)cyclopropyl)-1H-pyrazolo[4,3-c]pyridine-6-carboxamide]"
11,7.66,CC(C)n1ncc2cnc(C(=O)NC3(c4ccc(-c5cncn(C)c5=O)cc4F)CC3)nc21 [Compound 26]
12,7.59,Cn1cncc(-c2ccc(C3(NC(=O)c4ncc(Cc5ccccc5)o4)CC3)cc2)c1=O [Compound 10]
13,7.25,CC(C)n1ncc2cnc(C(=O)NC3(c4ccc(-c5cncn(C6CCC6)c5=O)cc4)CC3)nc21 [Compound 42]
14,7.19,CC(C)n1cncc(-c2ccc(C3(NC(=O)c4ncc5cnn(C(C)C)c5n4)CC3)c(F)c2)c1=O [Compound 34]
15,7.41,"CC(C)n1ncc2cnc(C(=O)NC3(c4ccc(-c5cncn(C6CCOC6)c5=O)cc4)CC3)nc21 (stereo in doubt) [Compound 81, (S)-1-i-propyl-N-(1-(4-(6-oxo-1-(tetrahydrofuran-3-yl)-1,6-dihydropyrimidin-5-yl)phenyl)cyclopropyl)-1H-pyrazolo[3,4-d]pyrimidine-6-carboxamide]"
16,7.49,CC[C@H](C)n1cncc(-c2ccc(C3(NC(=O)c4ncc5cnn(C(C)C)c5n4)CC3)cc2)c1=O [Compound 43]
17,7.39,"CC(C)n1ncc2cnc(C(=O)NC3(c4ccc(-c5cncn([C@H]6C[C@@H](F)C6)c5=O)cc4)CC3)nc21 [Compound 88, N-(1-(4-(1-(cis-3-fluorocyclobutyl)-6-oxo-1,6-dihydropyrimidin-5-yl)phenyl)cyclopropyl)-1-i-propyl-1H-pyrazolo[3,4-d]pyrimidine-6-carboxamide]"
18,7.29,C[C@@H](n1cncc(-c2ccc(C3(NC(=O)c4ncc5cnn(CC6CC6)c5n4)CC3)cc2)c1=O)C(F)(F)F [Compound 70]
19,7.31,"CC(C)n1ncc2cnc(C(=O)NC3(c4ccc(-c5cncn(C)c5=O)c(F)c4)CC3)nc21 [Compound 23, N-(1-(3-fluoro-4-(1-methyl-6-oxo-1,6-dihydropyrimidin-5-yl)phenyl)cyclopropyl)-1-isopropyl-1H-pyrazolo[3,4-d]pyrimidine-6-carboxamide]"
